# Measured values as given in patent US20260248087A1, “GENERATING DOUBLED HAPLOID PLANTS” (Syngenta Crop Protection AG, priority 2023, published 2026).
# Values joined by “and” are separate entries in the source; they are usually repeats but may differ in a detail not shown here. Identical values can stand only once.
# How the values were obtained:
# corn embryos = test: Uptake of metcamifen and metabolism of colchicine in corn embryos (LCMS); type: in vitro ADME; settings: 500 ppm colchicine, corn embryos
# Experimental: An experiment was completed to evaluate the uptake of metcamifen into corn embryos, whether colchicine is metabolized in the embryos, and if metcamifen increased the rate of colchicine metabolism. Corn embryos were co-treated with 500 ppm colchicine in the presence of 200 ppm, 1000 ppm or no metcamifen (control) for 24 or 48 hours and frozen. One biological replicate was represented by five embryos, and three biological replicates were used per co-treatment.
# Prior to extraction, embryos were washed for 20 seconds in 80:20 (v/v) acetonitrile:H2O to remove any colchicine and metcamifen on the surface. Each replicate was extracted in 0.5 ml methanol using a fast prep maceration method. Then, samples were diluted 1 in 10 prior to analysis by Liquid Chromatography Mass Spectrometry (LCMS). Samples were analyzed alongside matrix matched standards of colchicine and metcamifen. Metabolite investigations were performed to identify any metabolites.
# isolated embryos = test: Potting and transplant rate, co-treatment with benoxacor or dichlormid during colchicine treatment; type: in vivo, maize
# Text: As used herein, the term “potted rate” or “potting rate” refers to the percent of germinated embryos successfully transferred to soil from total treated haploid embryos. The “potted rate” is used as an indication of plant health in monitoring the success of recovery and growth after treatment of haploids. As used herein, the term “transplant rate” refers to the survival of healthy plants after embryos were germinated and transferred to soil.
# Benoxacor was applied to isolated embryos of 2 genoytypes, with 2 replicates at levels of 0, 20, 50, 100 or 200 mg/L during colchicine treatment in the doubling media. The co-treatments were incubated for durations of 24 or 48 hours. […] None of the 48-hour co-treatments performed better than the equivalent co-treatment at 24 hours (see Table 18).
# Dichlormid was applied to isolated embryos from 2 genotypes, with 2 replicates at levels of 0, 20, 50, 100, 200 and 300 mg/L during colchicine treatment in the doubling media. The co-treatments were incubated for durations of 24 or 48 hours. […] The highest percent transplanted rates were 92% and 88% for co-treatments 100 mg/L and 50 mg/L both at 24 hours, respectively. None of the 48-hour co-treatments performed better than the equivalent co-treatment at 24 hours (see Table 19).
compound,measurement,setting,value
COc1cc2c(c(OC)c1OC)-c1ccc(OC)c(=O)cc1[C@@H](NC(C)=O)CC2 [colchicine],amount of colchicine recovered after 48 hours relative to 24 hours,corn embryos,double
"CC1COc2ccccc2N1C(=O)C(Cl)Cl (stereo not shown) [Benoxacor, benoxacor]",Potting Rate Mean,"isolated embryos; benoxacor 20 mg/L, 24 hours",79%
same,Potting Rate Mean,"isolated embryos; benoxacor 50 mg/L, 24 hours",90%
same,Potting Rate Mean,"isolated embryos; benoxacor 50 mg/L, 48 hours",40%
same,Potting Rate Mean,"isolated embryos; benoxacor 100 mg/L, 24 hours",79%
same,Potting Rate Mean,"isolated embryos; benoxacor 100 mg/L, 48 hours",60%
same,Potting Rate Mean,"isolated embryos; benoxacor 200 mg/L, 48 hours",74%
"C=CCN(CC=C)C(=O)C(Cl)Cl [Dichlormid, dichlormid]",Potting Rate Mean,"isolated embryos; dichlormid 20 mg/L, 24 hours",89%
same,Transplant Rate Mean,"isolated embryos; dichlormid 20 mg/L, 24 hours",86%
same,Potting Rate Mean,"isolated embryos; dichlormid 50 mg/L, 24 hours",90% and 91%
same,Transplant Rate Mean,"isolated embryos; dichlormid 50 mg/L, 24 hours",88% and 89%
same,Potting Rate Mean,"isolated embryos; dichlormid 100 mg/L, 24 hours",96% and 97%
same,Transplant Rate Mean,"isolated embryos; dichlormid 100 mg/L, 24 hours",92%
same,Potting Rate Mean,"isolated embryos; dichlormid 100 mg/L, 48 hours",70%
same,Transplant Rate Mean,"isolated embryos; dichlormid 100 mg/L, 48 hours",70%
same,Potting Rate Mean,"isolated embryos; dichlormid 200 mg/L, 48 hours",86%
same,Transplant Rate Mean,"isolated embryos; dichlormid 200 mg/L, 48 hours",84%
same,Potting Rate Mean,"isolated embryos; dichlormid 300 mg/L, 48 hours",95%
same,Transplant Rate Mean,"isolated embryos; dichlormid 300 mg/L, 48 hours",93%
